Measurements taken from patent publication US20130115294A1, “STABLE LIQUID OILY READY-TO-USE FORMULATIONS, PREPARATION THEREOF AND USE THEREOF” (CTS CHEMICAL INDUSTRIES LTD., priority 2010, published 2013).
Counter-ions that a name gives are not always drawn. Like-named read-outs stand apart in the source and are kept apart here.

Experiment: Caco-2 cell monolayer uptake and apparent permeability
Assay type: in vitro ADME
Details: human
Procedure: Caco-2 monolayer were grown in Dulbecco's modified Eagle's medium supplemented with 10% fetal bovine serum, 1% L-glutamine, 1% nonessential amino acids, and 5% antibiotic-antimycotic solution at 37° C. in humidified air, 5% CO2 atmosphere. The culture medium was replaced every 96 h. The uptake studies were conducted with monolayers (passages 73 to 79) in wells of 2 cm^2 which reach confluency following 4 days of incubation in culture. Prior to the experiments, the culture medium was replaced with transport medium and cell monolayers were subsequently equilibrated for 30 min at 37° C. before the uptake study. The transport medium was Hanks buffer composed of 136.89 mM NaCl, 5.36 mM KCl, 0.34 mM Na2HPO4, 0.44 mM KH2PO4, 0.41 mM MgSO4 7H2O, 19.45 mM glucose, 1.26 mM CaCl2, 0.49 mM MgCl2 6H2O, 4.17 mM NaHCO3, 10 mM HEPES, and the pH was adjusted to 7.4.
The powder (10 mg equivalent to 1 mg enalapril maleate) was weighted dispersed and fully dissolved in 1 ml Hanks buffer. 25 μl from this solution were placed in Caco-2 wells with 975 μl of Hanks buffer resulting in a final concentration of 25 μg/ml of enalapril maleate.
A 100 μl of parent CTS oil formulation was withdrawn and diluted with soybean oil USP to give 1 mg/ml of enalapril maleate.
A 25 μl of the diluted oil solution was placed into the transport medium to give a 25 μg/ml of enalapril maleate in each well (dilution 1:40).
All the uptake experiments were performed over 3 hours at 37° C. Following incubation the transport medium was collected in clean tubes stored at −80° C. up to the quantitative determination of the enalapril levels by HPLC (The HPLC method was provided by CTS). Regarding the cell monolayer in the wells, 1 ml of 0.2% SDS was added to each well to elicit lysis of the cell monolayer. The lysate were collected in a clean tube and enalapril was determined by CTS HPLC technique. […]

- Papp at 3 h, 25 μg/ml (Caco-2, pH 7.4, 25 μg/ml enalapril maleate, no intestinal juice, read-out: apparent permeability (Papp)): 25.1 ± 0.5 ×10⁻⁶ cm/s
- Papp at 3 h, 25 μg/ml (Caco-2, pH 7.4, printed values are Papp multiplied by 10^6, 25 μg/ml enalapril maleate, 37° C., Hanks buffer pH 7.4, + 0.1% intestinal juice (IJ), read-out: Papp × 10^6 (cm/s) ± s.d): 25.2 ± 4.81 ×10⁻⁶ cm/s
- Papp at 3 h, 25 μg/ml (Caco-2, pH 7.4, printed values are Papp multiplied by 10^6, 25 μg/ml enalapril maleate, 37° C., Hanks buffer pH 7.4, no intestinal juice, read-out: Papp × 10^6 (cm/s) ± s.d): 25.1 ± 2.93 ×10⁻⁶ cm/s
Structure (SMILES): CCOC(=O)[C@H](CCc1ccccc1)N[C@@H](C)C(=O)N1CCC[C@H]1C(=O)O [ENL-solution, enalapril maleate]
